Data as given in patent publication US20260216166A1, “COMPOUND FOR TREATMENT OF ERECTILE DYSFUNCTION” (Initiator Pharma A/S, priority 2023, published 2026).
“Also recorded” adds a separate entry of the source.

How the values were obtained:
[1] = system: rat corpus cavernosum strips; assay: Isometric tension of isolated rat corpus cavernosum strips; conditions: baseline tension, clozapine 10^-6 M, SCH23390, L-NOARG 10^-4 M, sildenafil 10^-7 M
Procedure: For functional studies in corpus cavernosum strips, the penis was removed by cutting the crura corpora cavernosa at the point of adhesion to the lower pubic bone, and the corpora cavernosa were then dissected free. The penis was submerged immediately in ice-cold (4° C.) PSS. The tunica albuginea was carefully opened from its proximal extremity of the corpus cavernosum towards the penile shaft and the erectile tissue within the corpus cavernosum was microsurgically dissected free. Change in isometric tension of corpus cavernosum strips (0.5×0.5×3 mm) were investigated in a tissue organ bath system (750TOBS, Danish Myotechnology, Aarhus, Denmark). Silk ligatures were applied at both ends of the strip preparations, which were then suspended between two L-formed metal prongs in thermostatically controlled organ baths (5 ml, 37° C.) containing PSS aerated with a mixture of 5% CO2 in air (pH 7.4). The bath fluid was routinely changed every 20 min and replaced with fresh PSS, also kept at 37° C. During an equilibration period of 60 min, tension was adjusted until a mean stable tension of 1.2 mN was obtained, as described earlier.
To test the contractility of the preparations, they were exposed to a potassium physiological saline solution (KPSS) of 125 mM and phenylephrine (10^-6 M), after each contraction acetylcholine was administrated to check endothelium-dependent relaxations.
To investigate the effect of IP2015 on corpus cavernosum strips, the drug (10 9-3×10^-4 M) was administered either in preparations at baseline tension or contracted with phenylephrine (10^-6 M) in the absence or presence of L-NOARG (10 4 M), a NO synthase inhibitor, sildenafil (10^-7 M), a PDE5 inhibitor, a dopamine D1 receptor antagonist, SCH23390, and a dopamine D2 receptor antagonist, clozapine (10^-6 M). The effect of vehicle was also investigated.

anaesthetized rats = assay: Intracavernous pressure / spontaneous erections in anaesthetized rats; format: in vivo, rat; conditions: rats
Procedure: For in vivo erectile physiology studies, rats were anaesthetized with pentobarbital sodium (Sygehus Apoteket, Aarhus, Denmark; 50 mg/kg) given intraperitoneally. During the experiment, the rats breathed spontaneously; the body temperature was monitored continuously and was maintained at 37° C. With a midline incision in the perineum, the base of the penis, enclosed by striated muscles, was exposed. The ischiocavernous muscle covering the crus corpus cavernosum was divided on one side, and entrance to the underlying tunica albuginea was given. A 25-gauge needle attached to a heparinized (100 IE ml-1) polyethylene catheter was inserted into the crus corpus cavernosum to measure intracavernous pressure (ICP). A heparinized polyethylene catheter (PE 50) was introduced into the carotid artery to measure mean arterial pressure (MAP). Continuous direct measurements of MAP and ICP were performed with transducers (Disposable BP Transducer, ADInstruments, UK), and registered and analysed on a computerized data acquisition system (PowerLab, ADInstruments).
A stabilizing period of 20-30 min was allowed before registration of basal ICP and MAP. Through a lower abdominal incision, the cavernous nerve was isolated at the lateral aspect of the prostate, and electrical stimulation was performed with a slender bipolar platinum electrode, which was connected to a S48 stimulator (Grass Instrument Co., Boston, MA, U.S.A.). To measure the maximum amplitude of the erectile response, a first stimulation of the cavernous nerve (square wave pulses of 6 Volts, 10 Hz, 1 ms pulse duration for 30 s) was performed.
IP2015, sildenafil, clozapine or vehicle were administered by injection in the jugular vein in volumes of maximum 200 μl. […] The observation period of spontaneous erection after injection of IP2015 was 30 min. Clozapine (1 mg/kg) or sildenafil (1 mg/kg) were administered 30 or 10 min prior to 1 mg/kg IP2015 injection, respectively. One group was injected with vehicle alone.
To investigate the involvement of proximal neuronal pathways in the effect of IP2015, mechanical denervation was performed. For mechanical denervation the isolated cavernous nerve was cut distal to the major pelvic ganglion. Absence of erectile response to electrical stimulation verified the efficacy of mechanical denervation.

N=C(NCCC[C@H](N)C(=O)O)N[N+](=O)[O-] [L-NOARG, N^G-nitro-L-arginine, reference compound]
effect on IP2015 relaxation of corpus cavernosum strips [1]: abolished the relaxant effect of IP2015 | effect on IP2015 relaxation of corpus cavernosum strips ([1]; listed as NG-nitro-L-arginine): blunted

CCCc1nn(C)c2c(=O)[nH]c(-c3cc(S(=O)(=O)N4CCN(C)CC4)ccc3OCC)nc12 [sildenafil, reference compound]
effect on IP2015 relaxation of corpus cavernosum strips [1]: enhanced relaxation to IP2015 | effect on magnitude of erectile responses induced by IP2015 (0.1 mg/kg) (anaesthetized rats; sildenafil 1 mg/kg): an effect on the magnitude of erectile responses | effect on IP2015-induced erectile responses (anaesthetized rats; sildenafil 1 mg/kg 10 min or clozapine 1 mg/kg 30 min prior to IP2015 i.v.): markedly increased the duration of these responses; also recorded: further enhanced the IP2015 mediated increase in intracavernosal pressure
